# What was measured:
# Format in all cases: in vivo
# [1] = system: Setaria viridis; experiment: greenhouse pre-emergence treatment, SETVI; settings: SETVI
# Method in brief: (§1)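 Seeds were sown per species in pots of loamy sand with about 3.0% humus, sprayed with the aqueous spray liquor directly after sowing, watered and hooded until rooted, then kept at 10-25° C. or 20-35° C. for 2 to 4 weeks. Damage was scored 0 (none) to 100 (no emergence/complete destruction).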
# [2] = system: BRAPL; experiment: greenhouse pre-emergence treatment, BRAPL; settings: Table X9, 21 DAT
# [3] = system: Polygonum convolvulus; experiment: greenhouse pre-emergence treatment, POLCO; settings: Fallopia convolvulus, 480 h, 20 DAT, POLCO
# Method in brief: as §1
# [4] = system: Matricaria chamomilla; experiment: greenhouse pre-emergence treatment, MATCH; settings: Matricaria chamomilla, 480 h, 20 DAT
# Source text: (§2) The culture containers used were plastic pots containing loamy sand with approximately 3.0% of humus as substrate. The seeds of the test plants were sown separately for each species.
# (§3) For the pre-emergence treatment, the active compounds, suspended or emulsified in water, were applied directly after sowing by means of finely distributing nozzles. The containers were irrigated gently to promote germination and growth and subsequently covered with transparent plastic hoods until the plants had rooted. This cover caused uniform germination of the test plants unless this was adversely affected by the active compounds.
# (§4) Depending on the species, the plants were kept at 10-25° C. and 20-35° C., respectively.
# (§5) The test period extended over 2 to 4 weeks. During this time, the plants were tended and their response to the individual treatments was evaluated.
# (§6) Evaluation was carried out using a scale from 0 to 100. 100 means no emergence of the plants, or complete destruction of at least the above-ground parts, and 0 means no damage or normal course of growth. A good herbicidal activity is given at values of at least 70, and very good herbicidal activity is given at values of at least 85.
# (§7) The respective stated components A and B, and if appropriate, C were formulated as a 10% by weight strength emulsion concentrate and, with addition of the amount of solvent system, introduced into the spray liquor used for applying the active compound. In the examples, the solvent used was water.
# (§8) In the examples below, using the method of S. R. Colby (1967) “Calculating synergistic and antagonistic responses of herbicide combinations”, Weeds 15, p. 22ff., the value E, which is expected if the activity of the individual active compounds is only additive, was calculated. E=X+Y−(X·Y/100) where X=effect in percent using herbicide A at an application rate a; • Y=effect in percent using herbicide B at application rate b; • E=expected effect (in %) of herbicide A+herbicide B at application rates a+b.
# [5] = system: Poa annua; experiment: greenhouse pre-emergence treatment, POAAN; settings: Poa annua, 480 h, 20 DAT; for inhibition at 500000 µg/mL (stock): sc
# Source text: as §2, §3, §4, §5, §6, §7, §8
# [6] = system: Brachiaria decumbens; experiment: greenhouse pre-emergence treatment, BRADC; settings: Urochloa decumbens, 480 h, 20 DAT, BRADC
# Method in brief: as §1
# [7] = system: Bromus sterilis; experiment: greenhouse pre-emergence treatment, BROST; settings: Bromus sterilis, 480 h, 20 DAT, BROST
# Method in brief: as §1
# [8] = system: Lolium multiflorum; experiment: greenhouse pre-emergence treatment, LOLMU; settings: Lolium multiflorum, 480 h, 20 DAT, LOLMU
# Method in brief: as §1
# [9] = system: Papaver rhoeas; experiment: greenhouse pre-emergence treatment, PAPRH; settings: 20 DAT
# Source text: as §2, §3, §4, §5, §6, §7, §8
# [10] = system: Galium aparine; experiment: greenhouse pre-emergence treatment, GALAP; settings: Galium aparine, 480 h, solo, EC 800 g/l, GALAP, 500 gai/ha, 20 DAT
# Method in brief: as §1
# [11] = system: Avena fatua; experiment: greenhouse pre-emergence treatment, AVEFA; settings: Avena fatua, 480 h, AVEFA, 20 DAT, solo terbuthylazin (SC 500 g/l) 500 gai/ha
# Method in brief: as §1
# [12] = system: Apera spica-venti; experiment: greenhouse pre-emergence treatment, APESV; settings: Apera spica-venti, sc, 480 h, 20 DAT
# Method in brief: as §1
# [13] = system: Ambrosia elatior; experiment: greenhouse pre-emergence treatment, AMBEL; settings: Ambrosia artemisiifolia, 480 h, terbuthylazin solo (SC 500 g/l), 500 gai/ha, 20 DAT, AMBEL
# Method in brief: as §1
# [14] = system: Stellaria media; experiment: greenhouse pre-emergence treatment, STEME; settings: Stellaria media, 480 h, 20 DAT, solo terbuthylazin (SC 500 g/l) 62.5 gai/ha
# Source text: as §2, §3, §4, §5, §6, §7, §8
# [15] = system: Echinocloa crus-galli; experiment: greenhouse pre-emergence treatment, ECHCG; settings: 20 DAT; for % activity: terbuthylazin solo (SC 500 g/l)
# Source text: as §2, §3, §4, §5, §6, §7, §8
# [16] = system: Alopecurus myosuroides; experiment: greenhouse pre-emergence treatment, ALOMY; settings: Alopecurus myosuroides, 480 h, 20 DAT, solo terbuthylazin (SC 500 g/l) 250 gai/ha
# Source text: as §2, §3, §4, §5, §6, §7, §8
# [17] = system: Digitaria sanguinalis; experiment: greenhouse pre-emergence treatment, DIGSA; settings: Digitaria sanguinalis, sc, 480 h, DIGSA, 20 DAT
# Method in brief: as §1
# [18] = system: Lolium perenne; experiment: greenhouse post-emergence treatment, LOLPE; settings: solo terbuthylazin (SC 500 g/l) 125 gai/ha, 20 DAT, 2nd series of rows
# Method: as §2
# To this end, the test plants were either sown directly, and grown in the same containers, or they were first grown separately as seedlings and transplanted into the test containers a few days prior to treatment.
# as §4, §5, §6
# In the examples, the solvent used was water.
# In the examples below, using the method of S. R. Colby (1967) “Calculating synergistic and antagonistic responses of herbicide combinations”, Weeds 15, p. […] E=X+Y−(X·Y/100) where X=effect in percent using herbicide A at an application rate a; • Y=effect in percent using herbicide B at application rate b; • E=expected effect (in %) of herbicide A+herbicide B at application rates a+b.
# [19] = prosulfocarb solo 250 gai/ha, read-out: % activity
# [20] = sc, solo terbuthylazin (SC 500 g/l) 250 gai/ha
# [21] = sc, solo terbuthylazin (SC 500 g/l) 500 gai/ha
# [22] = solo terbuthylazin (SC 500 g/l) 62.5 gai/ha
# [23] = solo terbuthylazin (SC 500 g/l) 125 gai/ha
# [24] = solo terbuthylazin (SC 500 g/l) 250 gai/ha
smiles,measurement,setting,value
O=C(Nc1ccc(F)cc1F)c1cccnc1Oc1cccc(C(F)(F)F)c1 [diflufenican],% activity,"[1]; Table X9, 21 DAT, solo diflufenican (SC 500 g/l) 60 gai/ha",70%
same,% activity,[2]; solo diflufenican (SC 500 g/l) 15 gai/ha,0%
same,% activity,[2]; solo diflufenican (SC 500 g/l) 30 gai/ha,0%
same,% activity,[2]; solo diflufenican (SC 500 g/l) 120 gai/ha,20%
CCCN(CCC)C(=O)SCc1ccccc1 [prosulfocarb],inhibition at 250 g/ha,[3]; [19],0%
same,inhibition at 1000 g/ha,[3]; prosulfocarb solo 1000 gai/ha,80%
same,inhibition at 250 g/ha,[4]; prosulfocarb solo 250 gai/ha,0%
same,inhibition at 1000 g/ha,[4]; prosulfocarb solo 1000 gai/ha,65%
same,inhibition at 125 g/ha,[5]; prosulfocarb solo 125 gai/ha,0%
same,"% herbicidal activity (weed control, 0-100 scale) at 250 g/ha",[6]; prosulfocarb solo 250 gai/ha,0%
same,"% herbicidal activity (weed control, 0-100 scale) at 500 g/ha",[6]; prosulfocarb solo 500 gai/ha,20%
same,inhibition at 250 g/ha,[7]; [19],0%
same,inhibition at 500 g/ha,[7]; prosulfocarb solo 500 gai/ha,40%
same,inhibition at 1000 g/ha,[7]; prosulfocarb solo 1000 gai/ha,50%
same,inhibition at 250 g/ha,[8]; prosulfocarb solo 250 gai/ha,30%
same,inhibition at 250 g/ha,"[1]; Setaria viridis, 480 h, prosulfocarb solo 250 gai/ha, 20 DAT",40%
same,inhibition at 1000 g/ha,"[1]; Setaria viridis, 480 h, prosulfocarb solo 1000 gai/ha, 20 DAT",85%
same,% activity,"[1]; solo, EC 800 g/l, 125 gai/ha, 20 DAT",10%
same,inhibition at 1000 g/ha,"[9]; Papaver rhoeas, 480 h, prosulfocarb solo 1000 gai/ha",70%
same,% activity,"[9]; solo, EC 800 g/l, 1000 gai/ha",70%
same,pest or weed control at 500 g/ha,[10],30%
"CCNc1nc(Cl)nc(NC(C)(C)C)n1 [terbuthylazin, terbuthylazine]","pest or weed control at 500000 µg/mL, 500 g/ha","[3]; terbuthylazin solo (SC 500 g/l), 500 gai/ha",65%
same,inhibition at 500000 µg/mL (stock),[3]; [20],0%
same,inhibition at 500000 µg/mL,[3]; [21],65%
same,inhibition at 500000 µg/mL,[11],0%
same,inhibition at 500000 µg/mL (stock),[5]; [22],0%
same,inhibition at 500000 µg/mL (stock),[5]; [23],30%
same,inhibition at 500000 µg/mL (stock),[5]; [24],70%
same,inhibition at 500000 µg/mL (stock),[12]; [22],0%
same,inhibition at 500000 µg/mL (stock),[12]; [23],50%
same,inhibition at 500000 µg/mL (stock),[7]; [24],0%
same,inhibition at 500000 µg/mL (stock),"[8]; sc, solo terbuthylazin (SC 500 g/l) 125 gai/ha",0%
same,inhibition at 500000 µg/mL (stock),[8]; [20],10%
same,inhibition at 500000 µg/mL,[8]; [21],35%
same,"pest or weed control at 500000 µg/mL, 500 g/ha",[13],65%
same,inhibition at 500000 µg/mL (stock),"[1]; Setaria viridis, 480 h, 20 DAT, solo terbuthylazin (SC 500 g/l) 250 gai/ha",0%
same,% activity,"[1]; terbuthylazin solo (SC 500 g/l), 62.5 gai/ha, 20 DAT",0%
same,% activity,"[1]; terbuthylazin solo (SC 500 g/l), 125 gai/ha, 20 DAT",0%
same,% activity,"[1]; terbuthylazin solo (SC 500 g/l), 250 gai/ha, 20 DAT",0%
same,inhibition at 500000 µg/mL (stock),[14],70%
same,inhibition at 500000 µg/mL,"[15]; Echinochloa crus-galli, 480 h, solo terbuthylazin (SC 500 g/l) 500 gai/ha",0%
same,% activity,[15]; 62.5 gai/ha,0%
same,% activity,[15]; 125 gai/ha,0%
same,inhibition at 500000 µg/mL (stock),[16],40%
same,inhibition at 500000 µg/mL (stock),[17]; [23],0%
same,inhibition at 500000 µg/mL (stock),[17]; [24],0%
same,inhibition at 500000 µg/mL,[17]; solo terbuthylazin (SC 500 g/l) 500 gai/ha,20%
same,% activity,[18],35%
